The text below walks through data of publication PMC8391922, “The Combined Effect of Branching and Elongation on the Bioactivity Profile of Phytocannabinoids. Part I: Thermo-TRPs” (Biomedicines, 2021).

The target of this test is T1, rat TRPV2 (Rattus norvegicus, UniProt Q9WUD2).
T1 construct: expressed in transfected cells; host or cells: HEK-293
T1 sequence (Q9WUD2 1-761): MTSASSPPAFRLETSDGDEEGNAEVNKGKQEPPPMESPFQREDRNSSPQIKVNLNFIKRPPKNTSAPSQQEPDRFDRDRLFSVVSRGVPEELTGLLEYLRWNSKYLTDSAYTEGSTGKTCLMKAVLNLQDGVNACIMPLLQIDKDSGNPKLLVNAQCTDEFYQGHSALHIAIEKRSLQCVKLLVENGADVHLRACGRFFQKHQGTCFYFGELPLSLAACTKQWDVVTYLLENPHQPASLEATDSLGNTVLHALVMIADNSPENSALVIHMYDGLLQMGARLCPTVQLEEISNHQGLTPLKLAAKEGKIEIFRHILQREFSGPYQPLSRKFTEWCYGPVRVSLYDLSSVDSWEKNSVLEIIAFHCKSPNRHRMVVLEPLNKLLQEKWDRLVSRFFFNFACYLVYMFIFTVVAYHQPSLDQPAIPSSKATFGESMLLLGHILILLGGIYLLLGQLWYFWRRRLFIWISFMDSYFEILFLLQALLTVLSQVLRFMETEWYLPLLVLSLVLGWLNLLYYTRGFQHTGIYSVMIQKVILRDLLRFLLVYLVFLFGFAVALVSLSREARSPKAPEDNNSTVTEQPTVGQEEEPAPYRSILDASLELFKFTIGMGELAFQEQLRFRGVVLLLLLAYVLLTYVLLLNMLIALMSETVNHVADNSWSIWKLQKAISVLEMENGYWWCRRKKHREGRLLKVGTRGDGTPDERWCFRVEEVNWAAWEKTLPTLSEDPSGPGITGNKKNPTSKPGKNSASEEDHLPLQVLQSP
As to the kind of experiment: TRPV2-mediated elevation of intracellular Ca2+ (Fluo-4) in transfected HEK-293 cells. Format: cell-based. To be noted: for IC50: compound added 5 min before agonist CBD 2 μM; for TRPV2 Efficacy (% IM 4 μM): percentage of the response to ionomycin 4 μM, HEK-293. On the procedure: Assays of rat TRPA1, TRPV2, TRPV3, TRPV4, and TRPM8 or human TRPV1 mediated elevation of intracellular Ca ^2+ in transfected HEK-293 cells were performed with a continuous monitoring of [Ca ^2+]i during the experiments. […] Cell fluorescence before and after the addition of various concentrations of test compounds was measured, normalizing the effects against the response to ionomycin (IM, 4 μM). The values of the effect on [Ca^2+]i in HEK-293 cells not transfected were used as baseline and subtracted from the values obtained from transfected cells. For TRPA1, agonist efficacy was expressed as a percentage of the effect on [Ca ^2+]i observed with 100 μM allylisothiocyanate. […] In the TRPV3 assay, TRPV3-expressing HEK293 cells were first sensitized with the structurally unrelated agonist 2-aminoethoxydiphenyl borate (100 μM). Antagonist/desensitizing behavior is evaluated against the agonist of the TRP analyzed by adding the compounds directly in the quartz cuvette 5 min before stimulation of cells with the agonist. […] Dose-response curve fitting (sigmoidal dose-response variable slope) and parameter estimation were performed with Graph-Pad Prism8 (GraphPad Software Inc., San Diego, CA, USA). All determinations were performed at least in triplicate.

Where [1] appears, read: IC50 TRPV2, antagonist/desensitizing.
Where [2] appears, read: antagonist/desensitizing, read-out: IC50 TRPV2.

Read-outs that look alike come from different tables or passages of the source. Where only a bound is given, the exact number is not on record here.

A word on the EC50: it is the concentration needed to bring the measured effect to its halfway point. The IC50 is the midpoint of a concentration-inhibition curve. Take `CCCCCCC(C)(C)c1cc(O)c(C/C=C(\C)CCC=C(C)C)c(O)c1` [7b, Depentyl-α,α-dimethylheptyl-cannabigerol]: the EC50 was 9.8 ± 0.6 µM and the “TRPV2 Efficacy (% IM 4 μM)” value was 65.3 ± 0.7%. Also, the IC50 under setting [1] was 39.4 ± 4.5 µM.

For the compound `C=C(C)[C@@H]1CCC(C)=C[C@H]1c1c(O)cc(C(C)(C)CCCCCC)cc1O` [1b, Depentyl-α,α-dimethylheptyl-cannabidiol], the “TRPV2 Efficacy (% IM 4 μM)” value is < 10%. Besides, under setting [2], the IC50 stood at 16.8 ± 0.2 µM.

Regarding `CCCCC(C)(C)c1cc(O)c2c(c1)OC(C)(CCC=C(C)C)C=C2` (stereo not drawn) [8d, Depentyl-5-α,α-dimethylpentylcannabichromene], the “TRPV2 Efficacy (% IM 4 μM)” value is recorded as <10%. The IC50 under setting [2] was found to be 13.3 ± 1.1 µM.

Take `CCCCCCC(C)(C)c1cc(O)c2c(c1)OC(C)(CCC=C(C)C)C=C2` (stereo not drawn) [8b, Depentyl-α,α-dimethylheptyl-cannabichromene]: the EC50 is > 50 µM and the “TRPV2 Efficacy (% IM 4 μM)” value is given as 76.1 ± 0.6%. Moreover, the IC50 under setting [1] is 22.6 ± 0.2 µM.

For the compound `CCCCCCCc1cc(O)c2c(c1)OC(C)(CCC=C(C)C)C=C2` (stereo not drawn) [8c, Depentyl-5-n-heptylcannabichromene], the “TRPV2 Efficacy (% IM 4 μM)” value is reported as <10%. For the same compound, the IC50 under setting [2] worked out at 9 ± 0.8 µM.
